Experiment [1] has as its target T1, human TGR5 receptor (Homo sapiens, UniProt Q8TDU6).
T1 construct: host or cells: CHO-K1 (hTGR5-CHO cells)
T1 sequence (Q8TDU6 1-330): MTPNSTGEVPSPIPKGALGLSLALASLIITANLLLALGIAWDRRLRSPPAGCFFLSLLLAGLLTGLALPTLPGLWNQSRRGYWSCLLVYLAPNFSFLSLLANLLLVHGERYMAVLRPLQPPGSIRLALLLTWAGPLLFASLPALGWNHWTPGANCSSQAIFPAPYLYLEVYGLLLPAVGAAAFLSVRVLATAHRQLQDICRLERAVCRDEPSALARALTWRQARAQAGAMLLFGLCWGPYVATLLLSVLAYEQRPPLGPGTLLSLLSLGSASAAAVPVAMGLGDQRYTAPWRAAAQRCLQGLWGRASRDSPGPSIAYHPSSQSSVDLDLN
The experiment in a line: Human TGR5 cAMP production assay. It counts as cell-based. As to conditions: human TGR5, luminescent cAMP assay; coded A-D; read-out: Human TGR5 Lum. cAMP Activity (EC50). In outline:
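CHO-K1 cells stably expressing human TGR5, with IBMX and cAMP antibody, were exposed to half-log serially diluted compound for 1 h at room temperature. cAMP measured by enzyme-fragment complementation luminescence (XS+ kit) after overnight incubation; EC50 values reported.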

Experiment [2] concerns the target T2, mouse TGR5 receptor (Mus musculus, UniProt Q80SS6).
T2 construct: expressed in transfected cells; host or cells: HEK293-EBNA (293 c18, ATCC CRL10852), Hygromycin B selection
T2 sequence (Q80SS6 1-329): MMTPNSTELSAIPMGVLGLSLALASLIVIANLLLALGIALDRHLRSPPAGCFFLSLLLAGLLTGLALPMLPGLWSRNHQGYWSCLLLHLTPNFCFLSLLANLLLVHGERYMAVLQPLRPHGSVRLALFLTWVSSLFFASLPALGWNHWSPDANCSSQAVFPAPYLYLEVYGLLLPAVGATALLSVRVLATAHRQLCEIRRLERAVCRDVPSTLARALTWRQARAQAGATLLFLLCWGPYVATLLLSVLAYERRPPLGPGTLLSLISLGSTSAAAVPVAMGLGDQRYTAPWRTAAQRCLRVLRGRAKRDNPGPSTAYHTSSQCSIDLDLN
The experiment in a line: Mouse TGR5 cAMP production assay (HTRF, Cisbio cAMP HiRange). The class given is cell-based. Particulars: HEK293-EBNA cells overexpressing mouse TGR5, HTRF cAMP HiRange; coded A-D. In outline:
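cAMP read by HTRF competition after 1 h room-temperature compound exposure of mouse TGR5-overexpressing HEK293-EBNA cells. Cells were suspended in serum-free DMEM containing 500 μM IBMX; compounds ran as 12-point half-log dilutions in duplicate; EC50 derived.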
For orientation: Changes in cAMP serve as a functional read-out for many G protein-coupled receptors.

Where only a bound is given, the exact number is not on record here.

A word on the EC50: it is the concentration at which the effect is half-maximal. As to `Cc1cnccc1-c1cccc([C@H](C)N(CCCC(=O)NCCN)S(=O)(=O)c2ccccc2C(F)(F)F)c1` [Compound 20BX], the EC50 was less than 100 nM in experiment [1] and 100 to 999 nM in experiment [2].

Regarding `Cc1cnccc1-c1cccc(C(C)(C)N(CCCC(=O)NCCN)S(=O)(=O)c2cccc(Cl)c2C)c1` [Compound 21, N-(2-Aminoethyl)-4-(3-chloro-2-methyl-N-(2-(3-(3-methylpyridin-4-yl)phenyl)propan-2-yl)-phenylsulfonamido)butanamide], the EC50 in experiment [1] was less than 100 nM; in experiment [2], 100 to 999 nM.

In the case of `Cc1cnccc1-c1cccc(C(C)(C)N(CCCC(=O)N[C@@H](CS(=O)(=O)O)C(=O)O)S(=O)(=O)c2cccc(Cl)c2C)c1` [Compound 21AA, (R)-2-(4-(3-chloro-2-methyl-N-(2-(3-(3-methylpyridin-4-yl)phenyl)propan-2-yl)phenylsulfonamido)butanamido)-3-sulfopropanoic acid], the half-maximal effective concentration (EC50) in experiment [1] is 100 to 999 nM; in experiment [2], less than 100 nM.

For the compound `Cc1cnccc1-c1cccc(C(C)(C)N(CCCC(=O)NCCN(C)C)S(=O)(=O)c2cccc(Cl)c2C)c1` [Compound 21AD, 4-(3-chloro-2-methyl-N-(2-(3-(3-methylpyridin-4-yl)phenyl)propan-2-yl)phenylsulfonamido)-N-(2-(dimethyl-amino)ethyl)butanamide], the EC50 in experiment [1] is less than 100 nM; in experiment [2] it was 100 to 999 nM.

With `Cc1cnccc1-c1cccc(C(C)(C)N(CCCC(=O)N[C@H](C)C(=O)O)S(=O)(=O)c2cccc(Cl)c2C)c1` [Compound 21AE, (R)-2-(4-(3-chloro-2-methyl-N-(2-(3-(3-methylpyridin-4-yl)phenyl)propan-2-yl)phenylsulfonamido)butanamido)propanoic acid], the EC50 in experiment [1] and in experiment [2] was less than 100 nM each time.

`Cc1cnccc1-c1cccc(C(C)(C)N(CCCC(=O)N[C@@H](C)C(=O)O)S(=O)(=O)c2cccc(Cl)c2C)c1` [Compound 21AF, (S)-2-(4-(3-chloro-2-methyl-N-(2-(3-(3-methylpyridin-4-yl)phenyl)propan-2-yl)phenylsulfonamido)butanamido)propanoic acid]: the EC50 in experiment [1] and in experiment [2] was less than 100 nM each time.

Take `Cc1cnccc1-c1cccc([C@H](C)N(CCCC(=O)NCCC(=O)O)S(=O)(=O)c2cccc(Cl)c2C)c1` [Compound 21AH, (S)-3-(4-(3-chloro-2-methyl-N-(1-(3-(3-methylpyridin-4-yl)phenyl)ethyl)phenylsulfonamido)butanamido)propanoic acid]: the EC50 in experiment [1] was less than 100 nM; in experiment [2], 100 to 999 nM.

As to `Cc1cnccc1-c1cccc([C@H](C)N(CCCC(=O)N[C@@H](CO)C(=O)O)S(=O)(=O)c2cccc(Cl)c2C)c1` [Compound 21AI, (S)-2-(4-(3-chloro-2-methyl-N-((S)-1-(3-(3-methylpyridin-4-yl)phenyl)ethyl)phenylsulfonamido)butanamido)-3-hydroxypropanoic acid], the EC50 in experiment [1] is less than 100 nM; in experiment [2], 100 to 999 nM.

For the compound `Cc1cnccc1-c1cccc([C@H](C)N(CCCC(=O)N2CCC[C@H]2C(=O)O)S(=O)(=O)c2cccc(Cl)c2C)c1` [Compound 21AJ, (S)-1-(4-(3-chloro-2-methyl-N-((S)-1-(3-(3-methylpyridin-4-yl)phenyl)ethyl)phenylsulfonamido)butanoyl)pyrrolidine-2-carboxylic acid], the EC50 in experiment [1] was less than 100 nM; in experiment [2], 100 to 999 nM.

Turning to `Cc1cnccc1-c1cccc([C@H](C)N(CCCC(=O)N(CC(=O)O)CC(=O)O)S(=O)(=O)c2cccc(Cl)c2C)c1` [Compound 21AK, (S)-2,2′-((4-(3-chloro-2-methyl-N-(1-(3-(3-methylpyridin-4-yl)phenyl)ethyl)phenylsulfonamido)butanoyl)azanediyl)diacetic acid], the EC50 in experiment [1] and in experiment [2] was 1000 to 30000 nM in each case.

Take `Cc1cnccc1-c1cccc([C@H](C)N(CCCC(=O)NCCC(=O)NCC(=O)O)S(=O)(=O)c2cccc(Cl)c2C)c1` [Compound 21AM, (S)-2-(3-(4-(3-chloro-2-methyl-N-(1-(3-(3-methylpyridin-4-yl)phenyl)ethyl)phenylsulfonamido)butanamido)propanamido)acetic acid]: the EC50 is less than 100 nM in experiment [1] and 100 to 999 nM in experiment [2].

Regarding `Cc1cnccc1-c1cccc([C@H](C)N(CCOCC(=O)NCCS(=O)(=O)O)S(=O)(=O)c2cccc(Cl)c2C)c1` [Compound 21AO, (S)-2-(2-(2-(3-Chloro-2-methyl-N-(1-(3-(3-methylpyridin-4-yl)phenyl)ethyl)phenylsulfonamido)ethoxy)acetamido)ethanesulfonic acid], the concentration giving a half-maximal response (EC50) in experiment [1] and in experiment [2] was 100 to 999 nM in each case.

In the case of `Cc1cnccc1-c1cccc([C@@H](C)N(CCCC(=O)NCCS(=O)(=O)O)S(=O)(=O)c2cccc(Cl)c2C)c1` [Compound 21AP, (R)-2-(4-(3-Chloro-2-methyl-N-(1-(3-(3-methylpyridin-4-yl)phenyl)ethyl)phenylsulfonamido)butanamido)ethane-sulfonic acid], the EC50 in experiment [1] is less than 100 nM; in experiment [2], 1000 to 30000 nM.

`CCc1cnccc1-c1cccc([C@H](C)N(CCCC(=O)NCS(=O)(=O)O)S(=O)(=O)c2cccc(Cl)c2C)c1` [Compound 21AR, (S)-(4-(3-chloro-N-(1-(3-(3-ethylpyridin-4-yl)phenyl)ethyl)-2-methylphenylsulfonamido)butanamido)methanesulfonic acid]: the EC50 in experiment [1] and in experiment [2] was less than 100 nM in each case.

Regarding `CCc1cnccc1-c1cccc([C@H](C)N(CCCC(=O)NCCN)S(=O)(=O)c2cccc(Cl)c2C)c1` [Compound 21AS, (S)-N-(2-aminoethyl)-4-(3-chloro-N-(1-(3-(3-ethylpyridin-4-yl)phenyl)ethyl)-2-methylphenylsulfonamido)butanamide], the EC50 in experiment [1] was less than 100 nM; in experiment [2] it was 100 to 999 nM.

As for `CCc1cnccc1-c1cc(O)cc(C(C)(C)NS(=O)(=O)c2ccccc2C(F)(F)F)c1` [Compound 22, N-(2-(3-(3-Ethylpyridin-4-yl)-5-hydroxyphenyl)propan-2-yl)-2-(trifluoromethyl)benzenesulfonamide], the EC50 in experiment [1] and in experiment [2] was less than 100 nM throughout.

On to `Cc1ccccc1S(=O)(=O)N(CCCC(=O)NCCS(=O)(=O)O)[C@@H](C)c1cccc(-c2ccncc2O)c1` [Compound 22AA, (S)-2-(4-(N-(1-(3-(3-hydroxypyridin-4-yl)phenyl)ethyl)-2-methylphenylsulfonamido)butanamido)ethanesulfonic acid], for which the EC50 was in the range of 100 to 999 nM in experiment [1] and 1000 to 30000 nM in experiment [2].

For `Cc1cnccc1-c1cccc(C(C)(C)N(CCCN)S(=O)(=O)c2cccc(Cl)c2C)c1` [Compound 23, N-(3-aminopropyl)-3-chloro-2-methyl-N-(2-(3-(3-methylpyridin-4-yl)phenyl)propan-2-yl)benzenesulfonamide], the EC50 in experiment [1] is less than 100 nM; in experiment [2] it was 1000 to 30000 nM.

Regarding `Cc1cnccc1-c1cccc([C@H](C)N(CCCCN)S(=O)(=O)c2ccccc2C(F)(F)F)c1` [Compound 24, (S)—N-(4-aminobutyl)-N-(1-(3-(3-methylpyridin-4-yl)phenyl)ethyl)-2-(trifluoromethyl)Benzenesulfonamide], the concentration for a half-maximal effect (EC50) is less than 100 nM in experiment [1] and 1000 to 30000 nM in experiment [2].

In the case of `Cc1cnccc1-c1cccc(C(CCCCN)NS(=O)(=O)c2ccccc2C(F)(F)F)c1` (centres unmarked) [Compound 24AA, N-(5-amino-1-(3-(3-methylpyridin-4-yl)phenyl)pentyl)-2-(trifluoromethyl)benzenesulfonamide], the values for the EC50 in experiment [1] and in experiment [2] were 1000 to 30000 nM and 100 to 999 nM, respectively.

As to `CCc1cnccc1-c1cccc([C@H](C)N(CCCCN)S(=O)(=O)c2cccc(Cl)c2C)c1` [Compound 24AC, (S)-N-(4-aminobutyl)-3-chloro-N-(1-(3-(3-ethylpyridin-4-yl)phenyl)ethyl)-2-methylbenzenesulfonamide], the EC50 in experiment [1] is 100 to 999 nM; in experiment [2], less than 100 nM.

Take `CCOC(=O)CCN/C(=N/C#N)NCCCN(C(C)(C)c1cccc(-c2ccncc2C)c1)S(=O)(=O)c1cccc(Cl)c1C` [Compound 25A, Ethyl (E)-3-(3-(3-((3-chloro-2-methyl-N-(2-(3-(3-methylpyridin-4-yl)phenyl)propan-2-yl)phenyl)sulfonamido)propyl)-2-cyanoguanidino)propanoate]: the figures for the EC50 in experiment [1] and in experiment [2] were less than 100 nM and 100 to 999 nM, respectively.

The record behind these values is patent publication US11236055B2 (Venenum Biodesign, LLC, priority 2016, dated 2022).
